From the supplement of paper PMC10307832

How the values were obtained:
Assay in all cases: relative viability (nuclei count vs DMSO), 5 days (fraction); higher = more cells survive
[1] = compound: CC(=O)c1c(C)c2cnc(Nc3ccc(N4CCNCC4)cn3)nc2n(C2CCCC2)c1=O [Palbociclib] + C[C@@H](Oc1cc(-c2cnn(C3CCNCC3)c2)cnc1N)c1c(Cl)ccc(F)c1Cl [Crizotinib] (partner 1 µM)
Method in brief: (§1)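 Relative viability is defined as nuclei in treated wells over nuclei in vehicle wells. Duplicate plates were run and medians reported. Lung cancer cell lines in 1536-well plates were dosed by pin tool one day after seeding, with one drug or with a fixed anchor-drug dose plus five library-drug doses (not always all listed) in √10 steps, and nuclei were counted after 5 days.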

[2] = compound: CC(=O)c1c(C)c2cnc(Nc3ccc(N4CCNCC4)cn3)nc2n(C2CCCC2)c1=O [Palbociclib] + CC(=O)Nc1cccc(-n2c(=O)n(C3CC3)c(=O)c3c(Nc4ccc(I)cc4F)n(C)c(=O)c(C)c32)c1 [Trametinib] (partner 0.02 µM)
Method in brief: as §1

[3] = compound: CC(=O)c1c(C)c2cnc(Nc3ccc(N4CCNCC4)cn3)nc2n(C2CCCC2)c1=O [Palbociclib] + Nc1ncn([C@H]2C[C@H](O)[C@@H](CO)O2)c(=O)n1 [Decitabine] (partner 2 µM)
Method in brief: as §1

[4] = compound: CC(=O)c1c(C)c2cnc(Nc3ccc(N4CCNCC4)cn3)nc2n(C2CCCC2)c1=O [Palbociclib] + O=C(CCCCCCC(=O)Nc1ccccc1)NO [Vorinostat] (partner 1 µM)
Method in brief: as §1

| Cell Line | relative viability ([1]; first compound 0.01 µM) | relative viability ([1]; first compound 0.03162 µM) | relative viability ([1]; first compound 0.1 µM) | relative viability ([1]; first compound 0.3162 µM) | relative viability ([1]; first compound 1 µM) | relative viability ([2]; first compound 0.01 µM) | relative viability ([2]; first compound 0.03162 µM) | relative viability ([2]; first compound 0.1 µM) | relative viability ([2]; first compound 0.3162 µM) | relative viability ([2]; first compound 1 µM) | relative viability ([3]; first compound 0.01 µM) | relative viability ([3]; first compound 0.03162 µM) | relative viability ([3]; first compound 0.1 µM) | relative viability ([3]; first compound 0.3162 µM) | relative viability ([3]; first compound 1 µM) | relative viability ([4]; first compound 0.01 µM) | relative viability ([4]; first compound 0.03162 µM) | relative viability ([4]; first compound 0.1 µM) | relative viability ([4]; first compound 0.3162 µM) | relative viability ([4]; first compound 1 µM) |
| --- | --- | --- | --- | --- | --- | --- | --- | --- | --- | --- | --- | --- | --- | --- | --- | --- | --- | --- | --- | --- |
| NCI-H322M | 0.949 | 0.883 | 0.858 | 0.813 | 0.697 | 0.499 | 0.474 | 0.491 | 0.482 | 0.51 | 0.691 | 0.654 | 0.674 | 0.654 | 0.521 | 0.837 | 0.784 | 0.602 | 0.55 | 0.454 |
| HOP-62 | 0.817 | – | 0.842 | 0.812 | 0.666 | 0.431 | – | 0.36 | 0.382 | 0.288 | 0.179 | – | 0.237 | 0.207 | 0.257 | 0.499 | – | 0.423 | 0.482 | 0.395 |
| NCI-H1755 | 0.927 | 0.889 | 0.707 | 0.706 | 0.539 | 0.804 | 0.746 | 0.688 | 0.719 | 0.597 | 0.742 | 0.744 | 0.614 | 0.7 | 0.635 | 0.721 | 0.62 | 0.489 | 0.606 | 0.491 |
| HCC-44 | 0.738 | 0.803 | 0.789 | 0.747 | 0.85 | 1.07 | 1.1 | 1.02 | 0.987 | 1.1 | 0.944 | 0.866 | 0.948 | 0.873 | 1 | 1.09 | 1.08 | 1.15 | 1.03 | 1.13 |
| LK-2 | 0.247 | – | 0.23 | 0.227 | 0.246 | 0.788 | 0.676 | 0.752 | 0.633 | 0.708 | 0.299 | 0.213 | 0.333 | 0.324 | 0.283 | 0.383 | 0.217 | 0.281 | 0.248 | 0.324 |
| NCI-H2085 | 0.895 | 0.823 | 0.513 | 0.695 | 0.576 | 0.529 | 0.516 | 0.588 | 0.482 | 0.34 | 0.555 | 0.55 | 0.65 | 0.534 | 0.538 | 0.816 | 0.786 | 0.748 | 0.63 | 0.383 |
| NCI-H647 | 0.947 | 0.809 | 0.759 | 0.735 | 0.462 | 0.502 | 0.305 | 0.428 | 0.346 | 0.272 | 0.408 | 0.315 | 0.356 | 0.392 | 0.337 | 0.576 | 0.313 | 0.616 | 0.409 | 0.458 |
| NCI-H1944 | 1.01 | 0.969 | 0.904 | 0.98 | 0.851 | 0.399 | 0.389 | 0.396 | 0.37 | 0.342 | 0.45 | 0.426 | 0.447 | 0.438 | 0.431 | 0.579 | 0.456 | 0.399 | 0.475 | 0.343 |
